One experiment deals with HCT116-WT cells. The experiment is described as follows: Inhibitory activity against cell proliferation (CellTiter Glo, 6 days), HCT116-WT. It is filed as cell-based. The following applies: 144 h, HCT116-WT cells, 6 days, CellTiter Glo; read-out: HCT116-WT IC50. In a few lines:
(§1)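 Viability is measured by CellTiter Glo luminescence on day 7, following a 6-day treatment with compounds serially diluted 4-fold over 8 points from 10000 nM. Both lines are plated at 250 cells per well and cultured overnight beforehand.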

A further experiment addresses PRMT5-MTA (Homo sapiens, UniProt O14744). The experiment is described as follows: Enzymatic inhibitory activity against PRMT5-MTA (AlphaScreen). It is filed as biochemical. The following applies: read-out: IC50. In a few lines: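 PRMT5/[…] (1 nM) was preincubated for 30 min at room temperature with 1 µM […] and 2.5 µM SAM, then exposed to compound (10-point, 3-fold from 1000 nM) for 15 min at 23 °C. Histone H4 substrate (5 nM) was added and reacted for 45 min at 23 °C. Symmetric dimethyl-R3 H4 was detected by AlphaScreen and IC50 calculated.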

The subject of a further experiment is HCT116 MTAP KO cells. The experiment is described as follows: Inhibitory activity against cell proliferation (CellTiter Glo, 6 days), HCT116 MTAP KO. The format is cell-based. The following applies: for IC50: Homo sapiens, HCT-116, 144 h, HCT116 MTAP KO cells, 6 days, CellTiter Glo, read-out: HCT116 MTAP KO IC50; for Selectivity HCT 116-WT/ HCT116 MTAP KO: ratio of IC50 HCT116-WT / HCT116 MTAP KO. In short, it runs like this: as §1

SMILES strings stand for the structures.

PRMT5-MTA, sequence (O14744 whole entry): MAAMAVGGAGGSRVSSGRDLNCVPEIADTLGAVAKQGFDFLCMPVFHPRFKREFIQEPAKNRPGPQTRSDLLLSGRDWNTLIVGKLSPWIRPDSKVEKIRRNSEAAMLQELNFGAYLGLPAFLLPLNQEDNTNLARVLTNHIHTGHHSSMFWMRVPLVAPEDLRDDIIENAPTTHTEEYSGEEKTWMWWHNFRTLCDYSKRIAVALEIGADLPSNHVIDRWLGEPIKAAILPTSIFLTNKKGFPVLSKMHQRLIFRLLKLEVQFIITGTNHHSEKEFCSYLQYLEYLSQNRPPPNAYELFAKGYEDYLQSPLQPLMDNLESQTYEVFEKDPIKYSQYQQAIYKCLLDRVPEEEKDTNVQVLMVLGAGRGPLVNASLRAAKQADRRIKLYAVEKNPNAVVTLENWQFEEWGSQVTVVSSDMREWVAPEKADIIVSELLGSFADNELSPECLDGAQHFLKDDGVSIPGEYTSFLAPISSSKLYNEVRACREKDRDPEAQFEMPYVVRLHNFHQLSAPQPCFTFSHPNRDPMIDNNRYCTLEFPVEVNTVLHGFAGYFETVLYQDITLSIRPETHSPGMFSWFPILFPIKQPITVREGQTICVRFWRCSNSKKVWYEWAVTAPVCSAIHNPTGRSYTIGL
PRMT5-MTA, sequence (Q9BQA1 whole entry partner): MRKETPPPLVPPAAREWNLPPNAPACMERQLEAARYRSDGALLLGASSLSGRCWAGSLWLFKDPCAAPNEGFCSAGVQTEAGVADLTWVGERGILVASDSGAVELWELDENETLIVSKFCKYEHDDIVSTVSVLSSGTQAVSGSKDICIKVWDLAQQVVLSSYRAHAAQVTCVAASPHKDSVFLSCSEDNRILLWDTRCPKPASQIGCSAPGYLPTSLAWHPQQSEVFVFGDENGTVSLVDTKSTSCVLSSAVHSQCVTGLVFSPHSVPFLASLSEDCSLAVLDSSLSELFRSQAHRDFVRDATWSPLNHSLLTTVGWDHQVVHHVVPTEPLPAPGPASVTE

As for `Cc1cnc(N(C)N(Cc2ccc(C(F)(F)F)cn2)C(=O)c2ccc3nc(N)c(C)cc3c2)nc1` [Example 276, 2-amino-N',3-dimethyl-N'-(5-methylpyrimidin-2-yl)-N-((5-(trifluoromethyl)pyridin-2-yl)methyl)quinoline-6-carbohydrazide], the IC50 with HCT116-WT cells came out at 1980 nM; at PRMT5-MTA, 1.6 nM; in the experiment on HCT116 MTAP KO cells, 80 nM. Further, the “Selectivity HCT 116-WT/ HCT116 MTAP KO” value in the experiment with HCT116 MTAP KO cells was 24.70.

With `Cc1cc2cc(C(=O)N(Cc3ccc(C4CCOC4)cn3)N(C)c3ncccn3)ccc2nc1N` (centres unmarked) [Example 217, 2-amino-N',3-dimethyl-N'-(pyrimidin-2-yl)-N-((5-(tetrahydrofuran-3-yl)pyridin-2-yl)methyl)quinoline-6-carbohydrazide], the IC50 with HCT116-WT cells stood at 2950 nM; at PRMT5-MTA it was 2.9 nM; in the experiment with HCT116 MTAP KO cells, 70 nM. Besides, the “Selectivity HCT 116-WT/ HCT116 MTAP KO” value in the experiment with HCT116 MTAP KO cells is 42.11.

For `C=C1CN(C(=O)c2cc3c(cc2Cl)nc(N)c2cnn(C)c23)N(c2ncc(Cl)cc2F)C1` [Example 434, (4-amino-7-chloro-1-methyl-1H-pyrazolo [4,3-c]quinolin-8-yl)(2-(5-chloro-3-fluoropyridin-2-yl)-4-methylenepyrazolidin-1-y 1)methanone], the values for the IC50 with HCT116-WT cells, on PRMT5-MTA and with HCT116 MTAP KO cells were 906 nM, 6.1 nM and 36 nM, respectively. Further, the “Selectivity HCT 116-WT/ HCT116 MTAP KO” value in the experiment on HCT116 MTAP KO cells is reported as 25.17.

Consider `Cc1cc2cc(C(=O)N(Cc3ccc(C(F)(F)F)cn3)N(C)c3ncc4[nH]ccc4n3)ccc2nc1N` [Compound 120, 2-amino-N',3-dimethyl-N'-(5H-pyrrolo[3,2-d]pyrimidin-2-yl)-N-((5-(trifluoromethyl)pyridin-2-yl)methyl)quinoline-6-carbo hydrazide], for which the half-maximal inhibitory concentration (IC50) was 170 nM with HCT116-WT cells, 2.5 nM on PRMT5-MTA and 10 nM in the experiment with HCT116 MTAP KO cells. In the experiment with HCT116 MTAP KO cells, the “Selectivity HCT 116-WT/ HCT116 MTAP KO” value is reported as 17.00.

On to `Cc1ncc(-c2cnc(N3CC(C)CN3C(=O)c3cc4c(cc3C)nc(N)c3cnn(C)c34)c(F)c2)s1` (centres unmarked) [Example 476, (4-amino-1,7-dimethyl-1H-pyrazolo[4,3-c]quinolin-8-yl)(2-(3-fluoro-5-(2-methylthiazol-5-yl)pyridin-2-yl)-4-methylpyrazolidin-1-yl)methanone], for which the half-inhibitory concentration (IC50) with HCT116-WT cells was 942 nM; at PRMT5-MTA, 5.6 nM; in the experiment with HCT116 MTAP KO cells, 28 nM. Also, the “Selectivity HCT 116-WT/ HCT116 MTAP KO” value with HCT116 MTAP KO cells is on record as 33.64.

Turning to `CC(=O)c1ccc(CN(C(=O)c2ccc3nc(N)c(C)cc3c2)N(C)c2ncccn2)nc1` [Example 294, N-((5-acetylpyridin-2-yl)methyl)-2-amino-N',3-dimethyl-N'-(pyrimidin-2-yl)quinoline-6-carbohydrazide], the concentration for half-maximal inhibition (IC50) worked out at 2900 nM with HCT116-WT cells, 1.9 nM on PRMT5-MTA and 113 nM with HCT116 MTAP KO cells. The “Selectivity HCT 116-WT/ HCT116 MTAP KO” value in the experiment with HCT116 MTAP KO cells is listed as 25.71.

As to `Cc1cc2nc(N)c3cnn(C)c3c2cc1C(=O)N1CC(C)CN1c1ccccc1C(F)(F)F` (centres unmarked) [Example 378, (4-amino-1,7-dimethyl-1H-pyrazolo[4,3-c]quinolin-8-yl)(4-methyl-2-(2-(trifluoromethyl)phenyl)pyrazolidin-1-yl)methanone], the half-maximal inhibitory concentration (IC50) in the experiment on HCT116-WT cells stood at 6760 nM; on PRMT5-MTA it was 6.6 nM; in the experiment with HCT116 MTAP KO cells, 316 nM. The “Selectivity HCT 116-WT/ HCT116 MTAP KO” value in the experiment on HCT116 MTAP KO cells is reported as 21.39.

For the compound `Cc1cc2nc(N)c3cnn(C)c3c2cc1C(=O)N1CCCCN1c1ccc(C(F)(F)F)cn1` [Example 343, (4-amino-1,7-dimethyl-1H-pyrazolo[4,3-c]quinolin-8-yl)(2-(5-(trifluoromethyl)pyridin-2-yl)tetrahydropyridazin-1 (2H)-yl) methanone], the IC50 with HCT116-WT cells turned out to be 4860 nM; at PRMT5-MTA, 3.9 nM; in the experiment with HCT116 MTAP KO cells, 212 nM. Moreover, the “Selectivity HCT 116-WT/ HCT116 MTAP KO” value with HCT116 MTAP KO cells came out at 22.90.

The values above are taken from EP4745134A1 (Jiangsu Yahong Meditech Co., Ltd., priority 2023, dated 2025).
